Values of other authors, collected in patent publication US20240139276A1, “HAIR GROWTH AGENT” (ADJUVANT HOLDINGS CO., LTD., priority 2021, published 2024).

Columns and labels:
[1] = test system: fibroblast growth factor 7 (FGF-7) expression in human dermal papilla cells; details: adenosine allowed to act on human dermal papilla cells
[2] = test system: vascular endothelial growth factor (VEGF) expression in human dermal papilla cells; details: adenosine allowed to act on human dermal papilla cells

Nc1ncnc2c1ncn2[C@@H]1O[C@H](CO)[C@@H](O)[C@H]1O [adenosine]
expression of fibroblast growth factor 7 (FGF-7) [1]: also promotes expression of fibroblast growth factor 7 (FGF-7)
expression of vascular endothelial growth factor (VEGF) [2]: promotes expression of vascular endothelial growth factor (VEGF)
